# Legend:
# [1] = Binary drug-excipient compatibility study (open dish); assay type: physicochemical
# Method: A binary drug-excipient compatibility study was conducted to identify suitable excipients for capsule formulation. Considering the low dose formulation where diluent constitutes majority of the composition, API to diluent ratio was 1:400; for other excipients, the ration was 1:50.
# Drug substance and excipients were dispensed at predetermined ratios, mixed using a vortex mixer for 30 seconds, and then dispensed into required number of vials for stability study. These vials (open dish condition) were exposed to 50° C./0% RH and 50° C./75% RH conditions for 2 and 4 weeks respectively. The control samples were stored in a refrigerator at 5° C. Selective samples were tested for chemical degradants and loss of chiral purity (conversion of S-isomer to R-isomer) after 2-weeks.
# The following are the major degradation pathways that could be shelf-life limiting: (1) hydrolysis; (2) oxidation; and (3) loss of chiral purity. The total chemical impurities and chiral impurity levels of the samples after stressing for 2-weeks and 4-weeks are compared with the control samples which are shown in FIG. 1A and FIG. 1B, respectively.
# [2] = pKa and pHmax of the HBr salt; assay type: physicochemical
# [3] = control sample, stored at 5° C.
smiles,measurement,setting,value
Br.N#Cc1ccc(N2CCN(Cc3ccc(COc4cccc5c4CN([C@H]4CCC(=O)NC4=O)C5=O)cc3)CC2)c(F)c1 [Compound 1 HBr],chemical impurity level,"[1]; 2-weeks exposure at 50° C./75% RH, open dish",0.35%
same,chemical impurity level,"[1]; 4-weeks exposure at 50° C./75% RH, open dish",0.77%
same,chiral impurity,"[1]; 4 weeks at 50° C./75% RH, open dish",0.4%
same,chemical impurities,[1]; [3],0.2%
same,chiral impurity,[1]; [3],0.3%
same,change in chemical impurities or chiral impurity,[1]; dry condition (50° C.),no significant change
same,pHmax,[2],4.62
same,pKa,[2],6.62

# — US12472176B2, “Pharmaceutical compositions comprising (S)-4-(4-(4-(((2-(2,6-dioxopiperidin-3-yl)-1-oxoisoindolin-4-yl)oxy)methyl)benzyl)piperazin-1-yl)-3-fluorobenzonitrile and methods of using the same” (Celgene Corporation, priority 2020, dated 2025)
